Laboratory results taken from patent US7714146B2, “Azulene-oxindole compounds as multiple-kinase inhibitors and useful as anticancer agents” (Industrial Technology Research Institute, priority 2006, dated 2010).

Assays:
Assay type in all cases: biochemical
[1] = biological target: T1, human VEGFR-2 (Val789-Val1356) (Homo sapiens, UniProt P35968); assay: KDR kinase assay (HTScan VEGFR-2 kit, DELFIA); conditions: for inhibition at 0.1 µM: compound at 0.1 μM, read-out: KDR 0.1 μM, % of inhibition relative to control; for inhibition at 1 µM: compound at 1 μM, read-out: KDR 1 μM, % of inhibition relative to control
T1 construct: human VEGFR-2 (Val789-Val1356); GST (N); purchased Cell Signaling Technology; host or cells: baculovirus expression system
Description: (§1) Compounds 1-100 were treated for their efficacy in inhibiting activities of FLT-3, c-KIT, KDR/Flk-1, PDGFR-beta, EGFR, and PKC kinases by biochemical DELFIA (Dissociation Enhanced Lanthanide FIA) assays according to the procedure described below. The assays were conducted by, Division of Cell Engineering, Biomedical Engineering Research Laboratories, Industrial Technology Research Institute, Bldg. 53, 195, sec. 4, Chung Hsing Rd. Chutung, Hsinchu, Taiwan 310, R.O.C.
(§2) The KDR assay was conducted following the protocol described in Protocol for HTScan® VEGFR-2 Kinase Assay Kit (Cell Signaling Technology®). The assay was conducted under the following conditions: KDR source: The GST-Kinase fusion protein was produced using a baculovirus expression system with a construct expressing human VEGFR-2 (Val789-Val1356) (GenBank Accession No. NM_002253) with an amino-terminal GST tag, substrate: 1.5 μM Gastrin Precursor Biotinylated Peptide (with Tyr87 as phosphorylation site), vehicle: 1% DMSO, pre-incubation time/temperature: 5 minutes at room temperature, incubation time/temperature: 30 minutes at room temperature, incubation buffer: 60 mM HEPES pH 7.5, 5 mM MgCl2, 5 mM MnCl2, 3 μM Na3VO4, 1.25 mM DTT, 20 μM ATP, and quantitative method: DELFIA® Assay.

[2] = biological target: T2, human c-KIT (Thr544-Val976) (Homo sapiens, UniProt P10721); assay: c-KIT kinase assay (HTScan kit, DELFIA); conditions: for inhibition at 0.1 µM: compound at 0.1 μM, read-out: c-KIT 0.1 μM, % of inhibition relative to control; for inhibition at 1 µM: compound at 1 μM, read-out: c-KIT 1 μM, % of inhibition relative to control
T2 construct: human c-KIT (Thr544-Val976); GST (N); purchased Cell Signaling Technology; host or cells: baculovirus expression system
Description: as §1
as §2, with “c-KIT” for “KDR”, “c-KIT” for “VEGFR-2”, “GST-c-KIT” for “GST-Kinase”, “c-KIT (Thr544-Val976)” for “VEGFR-2 (Val789-Val1356) (GenBank Accession No. NM_002253)”, “This biotinylated peptide contains the residues surrounding Tyr-996 of KDR,” for “Gastrin Precursor Biotinylated Peptide (with Tyr87 as phosphorylation site),”

[3] = biological target: T3, human FLT-3 (Arg571-Ser993) (Homo sapiens, UniProt P36888); assay: FLT-3 kinase assay (HTScan kit, DELFIA); conditions: for inhibition at 0.1 µM: compound at 0.1 μM, read-out: FLT-3 0.1 μM, % of inhibition relative to control; for inhibition at 1 µM: compound at 1 μM, read-out: FLT-3 1 μM, % of inhibition relative to control
T3 construct: human FLT-3 (Arg571-Ser993); GST (N); purchased Cell Signaling Technology; host or cells: baculovirus expression system
T3 sequence (P36888 571-993): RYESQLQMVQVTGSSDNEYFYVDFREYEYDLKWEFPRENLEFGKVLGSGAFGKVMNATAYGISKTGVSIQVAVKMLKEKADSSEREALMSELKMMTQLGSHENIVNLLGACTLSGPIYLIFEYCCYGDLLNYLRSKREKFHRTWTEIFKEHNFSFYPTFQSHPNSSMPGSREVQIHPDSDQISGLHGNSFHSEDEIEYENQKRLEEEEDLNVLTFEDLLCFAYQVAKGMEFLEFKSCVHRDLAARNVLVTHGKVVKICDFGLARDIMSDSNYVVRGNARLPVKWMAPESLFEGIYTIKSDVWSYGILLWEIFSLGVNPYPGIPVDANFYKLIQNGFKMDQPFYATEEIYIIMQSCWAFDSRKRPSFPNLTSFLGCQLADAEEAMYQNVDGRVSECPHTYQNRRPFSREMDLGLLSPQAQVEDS
Description: as §1
as §2, with “FLT-3” for “KDR”, “FLT-3” for “VEGFR-2”, “GST-kinase” for “GST-Kinase”, “FLT-3 (Arg571-Ser993)” for “VEGFR-2 (Val789-Val1356)”, “accession” for “Accession”, “NM_004119)” for “NM_002253)”

T2 sequence (P10721 544-976): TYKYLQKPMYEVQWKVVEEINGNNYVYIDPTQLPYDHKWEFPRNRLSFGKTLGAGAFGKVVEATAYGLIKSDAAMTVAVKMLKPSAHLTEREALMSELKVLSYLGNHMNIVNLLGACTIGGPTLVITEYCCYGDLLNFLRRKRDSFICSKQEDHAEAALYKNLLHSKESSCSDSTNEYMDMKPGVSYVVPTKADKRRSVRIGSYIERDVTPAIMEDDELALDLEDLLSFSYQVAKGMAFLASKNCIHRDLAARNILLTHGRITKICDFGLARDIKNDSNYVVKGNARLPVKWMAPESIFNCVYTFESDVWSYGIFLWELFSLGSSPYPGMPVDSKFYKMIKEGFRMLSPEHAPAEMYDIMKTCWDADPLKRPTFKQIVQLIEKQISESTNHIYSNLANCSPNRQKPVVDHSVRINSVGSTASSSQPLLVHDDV
T1 sequence (P35968 789-1356): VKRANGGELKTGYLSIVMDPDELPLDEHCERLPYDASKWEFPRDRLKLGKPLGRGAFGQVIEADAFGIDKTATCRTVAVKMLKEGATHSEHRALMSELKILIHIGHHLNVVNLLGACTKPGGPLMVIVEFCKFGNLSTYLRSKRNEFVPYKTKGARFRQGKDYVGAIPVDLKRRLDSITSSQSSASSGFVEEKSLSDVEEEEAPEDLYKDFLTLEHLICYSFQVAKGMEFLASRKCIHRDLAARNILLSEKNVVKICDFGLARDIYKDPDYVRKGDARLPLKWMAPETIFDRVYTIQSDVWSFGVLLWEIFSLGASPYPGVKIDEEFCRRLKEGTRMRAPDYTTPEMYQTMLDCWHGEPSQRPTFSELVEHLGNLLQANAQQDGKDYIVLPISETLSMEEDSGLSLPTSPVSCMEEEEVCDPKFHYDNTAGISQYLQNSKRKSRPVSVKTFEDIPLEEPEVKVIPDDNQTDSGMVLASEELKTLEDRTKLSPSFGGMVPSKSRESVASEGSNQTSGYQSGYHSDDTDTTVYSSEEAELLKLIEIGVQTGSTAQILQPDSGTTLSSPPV

Row | SMILES | inhibition at 0.1 µM [1] [%] | inhibition at 1 µM [1] [%] | inhibition at 0.1 µM [2] [%] | inhibition at 1 µM [2] [%] | inhibition at 0.1 µM [3] [%] | inhibition at 1 µM [3] [%]
1 | Cc1cc(C=C2C(=O)Nc3ccc(S(=O)(=O)NCCCN4CCN(C)CC4)cc32)c2cccccc1-2 [Compound 82, 3-(3-Methyl-azulen-1-ylmethylene)-2-oxo-2,3-dihydro-1H-indole-5-sulfonic acid [3-(4-methyl-piperazin-1-yl)-propyl]-amide] | 17.6 | 18.5 | 30.7 | 30.7 | 12.8 | 13.5
2 | CN(C)CCNC(=O)c1cc(/C=C2/C(=O)Nc3ccc(F)cc32)c2cccccc1-2 [Compound 67, 3-(5-Fluoro-2-oxo-1,2-dihydro-indol-3-ylidenemethyl)-azulene-1-carboxylic acid (2-dimethylamino-ethyl)-amide] |  | 7.4 | 30.2 | 30.2 |  | 14
3 | Cc1c2cccccc-2c(C)c1/C=C1/C(=O)Nc2ccc(F)cc21 [Compound 66, 3-(1,3-Dimethyl-azulen-2-ylmethylene)-5-fluoro-1,3-dihydro-indol-2-one] | 14.8 | 40.6 | 33.7 | 33.7 | 15.8 | 19.6
4 | CC(C)c1cc(C=C2C(=O)Nc3ccc(F)cc32)c2cccccc1-2 [Compound 81, 5-Fluoro-3-(3-isopropyl-azulen-1-ylmethylene)-1,3-dihydro-indol-2-one] | 33 | 36.6 | 48.7 | 48.7 | 19.1 | 43.5
5 | O=C1Nc2ccc(F)cc2/C1=C/c1c(Br)c2cccccc-2c1Br [Compound 61, 3-(1,3-Dibromo-azulen-2-ylmethylene)-5-fluoro-1,3-dihydro-indol-2-one] | 44.2 | 52.6 | 30.5 | 30.5 | 62.5 | 42.5
6 | O=C1Nc2ccc(F)cc2/C1=C\c1ccc2cccccc1-2 [Compound 25, 3-Azulen-1-ylmethylene-5-fluoro-1,3-dihydro-indol-2-one] | 7.7 | 45.7 | 75 | 75 | 26.2 | 58.8
7 | Cc1cc(/C=C2/C(=O)N(Cc3ccccc3)c3ccccc32)c2c(C)ccc(C(C)C)cc1-2 [Compound 13, 1-Benzyl-3-(5-isopropyl-3,8-dimethyl-azulen-1-ylmethylene)-1,3-dihydro-indol-2-one] | 54.1 | 83.9 | 66.2 | 66.2 | 4.4 | 0.2
8 | O=C1Nc2cc(Br)ccc2/C1=C\c1ccc2cccccc1-2 [Compound 28, 3-Azulen-1-ylmethylene-6-bromo-1,3-dihydro-indol-2-one] |  | 22.4 | 6.8 | 6.8 | 1.9 | 24.5
9 | Cc1cc(C=C2C(=O)Nc3c(F)cccc32)c2ccccc(OCCCN(C)C)c1-2 [Compound 99, 3-[4-(3-Dimethylamino-propoxy)-3-methyl-azulen-1-ylmethylene]-7-fluoro-1,3-dihydro-indol-2-one] | 28.7 | 73.9 | 34.4 | 34.4 | 7.3 | 59.4
10 | CN(C)Cc1cc(/C=C2/C(=O)Nc3ccc(F)cc32)c2cccccc1-2 [Compound 65, 3-(3-Dimethylaminomethyl-azulen-1-ylmethylene)-5-fluoro-1,3-dihydro-indol-2-one] | 46.8 | 46.9 | 51.3 | 51.3 | 23.3 | 30.9
11 | CCOC(=O)N1CCC(Nc2ccc3c(c2)NC(=O)/C3=C/c2cc(C)c3c(OCCCN(C)C)ccccc2-3)CC1 [Compound 97, 4-{3-[4-(3-Dimethylamino-propoxy)-3-methyl-azulen-1-ylmethylene]-2-oxo-2,3-dihydro-1H-indol-6-ylamino}-piperidine-1-carboxylic acid ethyl ester] | 30.5 | 41.8 | 30.6 | 30.6 | 19.1 | 23.9
12 | Cc1[nH]c(/C=C2\C(=O)Nc3ccc(F)cc32)c2ccc(=O)ccc12 [Compound 63, 1-(5-Fluoro-2-oxo-1,2-dihydro-indol-3-ylidenemethyl)-3-methyl-2H-cyclohepta[c]pyrrol-6-one] | 6.7 | 32.2 | 57.1 | 57.1 | 50.5 | 55.7
13 | Cc1ccc2c(c1)/C(=C\c1c3cccccc-3nc1N)C(=O)N2 [Compound 54, 3-(2-Amino-cyclohepta[b]pyrrol-3-ylmethylene)-5-methyl-1,3-dihydro-indol-2-one] | 17 | 25.7 | 27.5 | 27.5 | 33.3 | 52.5
14 | O=C1Nc2ccc(F)cc2/C1=C\c1ccc2cccc-2cc1 [Compound 53, 3-Azulen-6-ylmethylene-5-fluoro-1,3-dihydro-indol-2-one] | 16.3 | 20.1 | 39.8 | 39.8 | 30.6 | 52.7
15 | Cc1cc(C=C2C(=O)Nc3ccc(C(F)(F)F)cc32)c2ccccc(OCCCN(C)C)c1-2 [Compound 100, 3-[4-(3-Dimethylamino-propoxy)-3-methyl-azulen-1-ylmethylene]-5-trifluoromethyl-1,3-dihydro-indol-2-one] | 33.3 | 73.2 | 48.1 | 48.1 | 64.9 | 89.1
16 | CCOC(=O)N1CCC(Nc2ccc3c(c2)/C(=C\c2cc(C)c4c(OCCCN(C)C)ccccc2-4)C(=O)N3)CC1 [Compound 85, 4-{3-[4-(3-Dimethylamino-propoxy)-3-methyl-azulen-1-ylmethylene]-2-oxo-2,3-dihydro-1H-indol-5-ylamino}-piperidine-1-carboxylic acid ethyl ester] |  | 4.4 | 2.4 | 2.4 |  | 2
